{"source": "patent US20260265321A1", "about": "“PEPTIDE AND POLYPEPTIDE INHIBITING THE NF-KB SIGNALING PATHWAY” (Centre National de la Recherche Scientifique, priority 2023, published 2026)", "key": {"[1]": {"target": "T1, IKKα(10-667) EE homodimer (Homo sapiens, UniProt O15111, S176E/S180E)", "T1 construct": "an equivalent construct of the IKKα homodimer (i.e. IKKα(10-667) S176E/S180E, named IKKα(10-667) EE hereafter); 6×His (followed by TEV site) (N, cleaved yes); made in house; host or cells: Sf21 insect cells (baculovirus)", "T1 sequence (O15111 10-667 S176E/S180E)": "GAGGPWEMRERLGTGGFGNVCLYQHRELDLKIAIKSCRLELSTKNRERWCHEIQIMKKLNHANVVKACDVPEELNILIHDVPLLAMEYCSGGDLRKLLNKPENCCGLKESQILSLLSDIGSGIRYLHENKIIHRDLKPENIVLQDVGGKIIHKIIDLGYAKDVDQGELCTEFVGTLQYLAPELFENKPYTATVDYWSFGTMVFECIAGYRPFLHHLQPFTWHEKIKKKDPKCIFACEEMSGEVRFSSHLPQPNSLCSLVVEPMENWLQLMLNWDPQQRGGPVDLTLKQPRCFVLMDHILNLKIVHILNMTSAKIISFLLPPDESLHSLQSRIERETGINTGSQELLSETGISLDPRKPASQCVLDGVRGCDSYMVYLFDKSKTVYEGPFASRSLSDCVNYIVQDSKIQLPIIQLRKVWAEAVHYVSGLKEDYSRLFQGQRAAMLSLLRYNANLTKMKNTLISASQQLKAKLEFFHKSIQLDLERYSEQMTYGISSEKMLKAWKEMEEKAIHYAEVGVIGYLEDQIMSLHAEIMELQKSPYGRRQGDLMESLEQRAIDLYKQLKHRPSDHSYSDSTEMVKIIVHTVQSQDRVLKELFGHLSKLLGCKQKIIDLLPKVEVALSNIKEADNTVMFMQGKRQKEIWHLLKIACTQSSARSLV", "test": "Isothermal titration calorimetry (ITC) of peptide binding to IKKα homodimer", "settings": "for TΔS / ΔG / ΔH / Kd: IKKα", "description": "All experiments were performed in ITC buffer (20 mM HEPES pH 8.0, 150 mM NaCl, 1 mM TCEP) unless otherwise stated. Purified IKKα(10-667) EE and IKKβ(1-669) EE protein samples were dialyzed overnight against ITC buffer at 4° C. Just before the ITC experiments, IKKα or IKKβ samples were concentrated, incubated at room temperature for 30 minutes and centrifuged at 11000 g to remove eventual precipitate. The final concentrations of IKKα and IKKβ in the sample cell varied between 22 and 50 μM depending on the measurement. HPLC purified synthetic peptides (IκBα pep) comprising residues 297-317 of IκBα were further desalted using a Nap5 (GE Healthcare, #17-0853-01) column equilibrated in milliQ water, lyophilized and then resuspended in ITC buffer. The concentration of peptides in the syringe varied between 220 and 975 μM depending on the measurement.\nAll ITC measurements were performed using a PEAQ-ITC MALVERN instrument. The titration parameters were set as following: temperature 25° C., reference power 10 μcal/s, feedback=high, stirring speed 750 RPM, initial delay 60 s, first injection 0.4 μl in 0.8 s and the remaining 19 injections were 2 μL in 4 s with 120 s of spacing. The data were fitted to a 1:1 binding model. All data were processed using NITPIC software and global fitting of two datasets was carried out using SEDPHAD.\nTo evaluate binding affinities, isothermal titration calorimetry (ITC) experiments were performed using a synthetic peptide that comprises the YDDφXφ motif plus the N-terminal acidic patch (residues 297-317, named IκBα pep hereafter) and purified IKKβ(1-669) EE homodimer or an equivalent construct of the IKKα homodimer (i.e. IKKα(10-667) S176E/S180E, named IKKα(10-667) EE hereafter). […] ITC analyses on the IKKα/β heterodimer were prevented by strong aggregation propensity at the concentrations required for these experiments.\nAll ITC experiments were performed at 25° C. The data were fitted to a 1:1 binding model. N refers to the binding stoichiometry of IKKα/β: pep, meaning that approximately half of total IKKα/β concentration binds pep ligand in agreement with the dimer form of IKKα/β being binding competent. The values for the IKKα interaction with IRF7 pep should be regarded as estimates due to low affinity and weakly exothermic binding, and therefore high experimental error and fitting uncertainty. All data were processed using NITPIC software and global fitting of two datasets was carried out using SEDPHAD."}, "[2]": {"target": "T2, endogenous IKK immunoprecipitated from HEK293T cells (Homo sapiens, UniProt O14920+O15111)", "T2 construct": "endogenous canonical IKK, which was immunoprecipitated from HEK293T cells using an anti-NEMO antibody; endogenous in cells; host or cells: HEK293T cells induced with TNFα; anti-NEMO immunoprecipitate on protein G beads", "T2 sequence (O14920 whole entry)": "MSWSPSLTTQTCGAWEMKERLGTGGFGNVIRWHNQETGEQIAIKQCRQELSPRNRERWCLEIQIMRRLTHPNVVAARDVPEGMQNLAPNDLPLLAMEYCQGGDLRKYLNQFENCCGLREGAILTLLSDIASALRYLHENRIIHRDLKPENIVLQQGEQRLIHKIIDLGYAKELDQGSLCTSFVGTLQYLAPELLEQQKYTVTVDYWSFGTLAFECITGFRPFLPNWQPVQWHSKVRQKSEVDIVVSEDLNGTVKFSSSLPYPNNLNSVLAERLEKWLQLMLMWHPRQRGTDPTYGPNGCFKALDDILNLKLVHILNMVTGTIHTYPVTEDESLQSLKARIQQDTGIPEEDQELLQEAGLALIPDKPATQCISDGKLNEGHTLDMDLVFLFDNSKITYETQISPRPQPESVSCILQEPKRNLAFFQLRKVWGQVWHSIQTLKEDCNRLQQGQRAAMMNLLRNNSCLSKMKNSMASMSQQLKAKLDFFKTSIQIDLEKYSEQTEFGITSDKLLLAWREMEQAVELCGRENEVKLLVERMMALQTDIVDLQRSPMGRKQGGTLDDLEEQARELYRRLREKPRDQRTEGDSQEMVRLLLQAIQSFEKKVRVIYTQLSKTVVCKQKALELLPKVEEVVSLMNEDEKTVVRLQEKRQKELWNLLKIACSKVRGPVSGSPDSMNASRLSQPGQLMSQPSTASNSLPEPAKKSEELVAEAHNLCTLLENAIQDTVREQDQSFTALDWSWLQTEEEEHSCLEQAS", "T2 sequence (O15111 whole entry)": "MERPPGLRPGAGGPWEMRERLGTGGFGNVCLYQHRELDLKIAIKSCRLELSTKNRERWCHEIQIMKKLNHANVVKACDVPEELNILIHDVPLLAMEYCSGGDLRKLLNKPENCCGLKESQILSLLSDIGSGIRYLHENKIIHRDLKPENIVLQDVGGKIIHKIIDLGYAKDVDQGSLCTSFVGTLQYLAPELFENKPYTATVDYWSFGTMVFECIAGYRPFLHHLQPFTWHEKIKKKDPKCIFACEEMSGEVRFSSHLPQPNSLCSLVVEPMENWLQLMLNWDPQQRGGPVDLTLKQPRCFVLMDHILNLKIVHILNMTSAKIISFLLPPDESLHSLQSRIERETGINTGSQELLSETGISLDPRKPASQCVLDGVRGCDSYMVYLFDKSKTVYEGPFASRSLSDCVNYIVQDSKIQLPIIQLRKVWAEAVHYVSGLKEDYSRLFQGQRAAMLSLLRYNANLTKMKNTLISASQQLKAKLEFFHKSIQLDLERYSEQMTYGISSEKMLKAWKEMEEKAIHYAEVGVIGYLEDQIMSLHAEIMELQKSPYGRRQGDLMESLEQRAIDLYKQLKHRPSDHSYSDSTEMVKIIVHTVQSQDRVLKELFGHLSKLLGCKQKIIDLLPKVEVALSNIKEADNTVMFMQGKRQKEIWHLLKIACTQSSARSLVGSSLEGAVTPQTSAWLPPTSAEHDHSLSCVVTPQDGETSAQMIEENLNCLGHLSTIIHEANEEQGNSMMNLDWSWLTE", "T2 sequence (Q9Y6K9 whole entry partner)": "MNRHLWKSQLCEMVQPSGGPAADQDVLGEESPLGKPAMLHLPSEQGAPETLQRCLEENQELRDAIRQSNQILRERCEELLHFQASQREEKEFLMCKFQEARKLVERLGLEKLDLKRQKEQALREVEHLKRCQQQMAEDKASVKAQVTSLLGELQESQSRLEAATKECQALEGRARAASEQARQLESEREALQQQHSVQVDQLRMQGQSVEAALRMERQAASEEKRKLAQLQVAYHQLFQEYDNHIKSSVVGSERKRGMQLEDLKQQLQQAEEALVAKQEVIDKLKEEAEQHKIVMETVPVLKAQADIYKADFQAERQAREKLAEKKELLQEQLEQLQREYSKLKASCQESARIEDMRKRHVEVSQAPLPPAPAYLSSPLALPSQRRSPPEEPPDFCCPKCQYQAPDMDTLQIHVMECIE", "test": "In vitro kinase assay with endogenous IKK, inhibition by synthetic peptides", "assay_type": "biochemical", "settings": "500 μM synthetic peptide, 1 μM 6×His-IκBα wt, 30° C.", "description": "Using endogenous IKK complex. IKK was immunoprecipitated from HEK293T cells. 3 petri dishes (100×15 mm, corning) of cells at 70% confluence were induced with 10 nM recombinant TNFα (abcam, #ab9642) for 10 minutes, and then washed twice by cold PBS. The whole-cell extracts were prepared by addition of 1 ml of lysis buffer (50 mM HEPES pH 8, 200 mM NaCl, 0.5% NP-40, 1 mM EDTA, 10 mM KCl, 1 mM DTT, Roche cOmplete™ protease inhibitors cocktail, 50 mM NaF, 50 mM b-glycerophosphate and 1 mM Na orthovanadate) and homogenized by passing through a 21-gauge needle for 5-10 times. After 30 minutes of incubation on ice, the extracts were centrifuged at 11,000 g and at 4° C. The cleared supernatants were incubated with 15 μl of anti-NEMO antibody (Santa Cruz biotech, #F-10) overnight at 4° C. and, then, immunoprecipitated with 150 μl of protein G Sepharose beads (GE, #17-0618-01) for 2 hours at 4° C. […]\nKinase activity reactions were performed in kinase buffer (defined above) using 50 μl immunoprecipitant and 1 μM of purified full-length 6×His-IκBα wt or mutant constructs. […] The reaction products were analysed on a 10% SDS-PAGE gel and Western blotting using anti-phospho-IκBα (Cell Signaling Technology, #9246), anti-IKKβ (cell signaling, #2684s) and anti-6×His (sigma, #SAB4301134) antibodies. The relative amounts of phosphorylated IκBα were quantified using ImageJ."}}, "note": "Residues, ends and D or L forms follow the SMILES beside them."}
{"smiles": "CC(C)C[C@H](NC(=O)[C@@H](NC(=O)[C@H](CC(C)C)NC(=O)[C@H](CCCNC(=N)N)NC(=O)[C@H](CCC(N)=O)NC(=O)CNC(=O)CNC(=O)[C@H](Cc1ccccc1)NC(=O)[C@@H](NC(=O)[C@H](CC(C)C)NC(=O)[C@H](CC(=O)O)NC(=O)[C@H](CC(=O)O)NC(=O)[C@H](Cc1ccc(O)cc1)NC(=O)[C@@H]1CCCN1C(=O)[C@H](CC(C)C)NC(=O)[C@H](CCC(=O)O)NC(=O)[C@H](CC(=O)O)NC(=O)[C@H](CCC(=O)O)NC(=O)[C@@H](NC(=O)[C@H](Cc1ccccc1)NC(=O)[C@@H](N)CCC(=O)O)[C@@H](C)O)C(C)C)[C@@H](C)O)C(=O)O", "note": "[IkBα pep C308L] (H-EFTEDELPYDDLVFGGQRLTL-OH; N-terminus and C-terminus assumed)", "values": [{"measurement": "enhancement of affinity to IKKα relative to IκBα pep wt", "setting": "[1]", "result": 25, "unit": "fold"}, {"measurement": "N (binding stoichiometry of IKKα: pep)", "setting": "[1]; 25° C., 1:1 binding model", "result": 0.65}, {"measurement": "TΔS", "setting": "[1]; 25° C.", "result": -4.71, "unit": "kcal/mol"}, {"measurement": "ΔG", "setting": "[1]; 25° C.", "result": -8.80, "unit": "kcal/mol"}, {"measurement": "ΔH", "setting": "[1]; 25° C.", "result": -13.5, "unit": "kcal/mol"}, {"measurement": "Kd", "setting": "[1]", "result": 0.35, "unit": "µM"}, {"measurement": "inhibition of IκBα phosphorylation (Ser32/Ser36)", "setting": "[2]", "result": "inhibit IκBα phosphorylation more efficiently than the YD/SS negative control peptide"}]}
{"smiles": "CC(C)C[C@H](NC(=O)[C@@H](NC(=O)[C@H](CC(C)C)NC(=O)[C@H](CCCNC(=N)N)NC(=O)[C@H](CCC(N)=O)NC(=O)CNC(=O)CNC(=O)[C@H](Cc1ccccc1)NC(=O)[C@@H](NC(=O)[C@H](CS)NC(=O)[C@H](CC(=O)O)NC(=O)[C@H](CC(=O)O)NC(=O)[C@H](Cc1ccc(O)cc1)NC(=O)[C@@H]1CCCN1C(=O)[C@H](CC(C)C)NC(=O)[C@H](CCC(=O)O)NC(=O)[C@H](CC(=O)O)NC(=O)[C@H](CCC(=O)O)NC(=O)[C@@H](NC(=O)[C@H](Cc1ccccc1)NC(=O)[C@@H](N)CCC(=O)O)[C@@H](C)O)C(C)C)[C@@H](C)O)C(=O)O", "note": "[IκBα pep] (H-EFTEDELPYDDCVFGGQRLTL-OH; N-terminus and C-terminus assumed)", "values": [{"measurement": "N (binding stoichiometry of IKKα: pep)", "setting": "[1]; 25° C., 1:1 binding model", "result": 0.62}, {"measurement": "Kd", "setting": "[1]; 25° C., 1:1 binding model", "result": 9, "unit": "µM"}, {"measurement": "TΔS", "setting": "[1]; 25° C.", "result": -8.35, "unit": "kcal/mol"}, {"measurement": "ΔG", "setting": "[1]; 25° C.", "result": -6.88, "unit": "kcal/mol"}, {"measurement": "ΔH", "setting": "[1]; 25° C.", "result": -15.2, "unit": "kcal/mol"}, {"measurement": "inhibition of IκBα phosphorylation (Ser32/Ser36)", "setting": "[2]", "result": "inhibit IκBα phosphorylation more efficiently than the YD/SS negative control peptide"}]}
